# Assay results from patent US20240076380A1, “DEVICE AND METHODS FOR RAPIDLY SCREENING AND TREATING CLINICAL CANCER PATIENTS WITH IMMUNOREGULATORY DRUGS” (Shanghai Lide Biotech Co., Ltd., priority 2022, published 2024).
# Experiments:
# [1] = tested on: patient with ovarian cancer; conditions: monotherapy
# [2] = tested on: metastatic tumor tissue (tumor cells and immune cells) of a patient with ovarian cancer in PVDF capsule tubes; assay: IO-FIVE capsule test in nude mice, ovarian cancer patient of Example 3 (CTG cell viability and FACS, day 10); type: in vivo, human; conditions: tumor sample after addition of autologous TIL cells (C/T 8)
# From the text: Experimental Animals, Sample Collection, and Cell Processing were the Same as in Example 1.
# The following was collected for cell phenotyping identification: a single cell suspension of patient tumor tissue samples before purification, tumor cells after purification, enriched immune cells (containing CD3+ T cells) eluted from the column, and a cell suspension in which tumor cells after purification and immune cells were mixed in a certain ratio (1.5:1 to 15:1), to yield a final cell count of 0.1 to 0.3 million cells. […]
# Cells within the Tubing The basic operational steps were the same as those in Example 1. According to the data analyzed by flow cytometry, the CD45− tumor cells and CD3+ T cells were mixed in a certain ratio (about 1.5:1-15:1). […]
# 3-21 days after administration (day 10 here), the mice were euthanized, and the PVDF tubes were removed. Cell viability was quantified by the CellTiter-Glo chemiluminescence method, and the relative ratio and basic phenotype of tumor cells and immune cells in PVDF tubes were detected by flow cytometry.
# Adjusted to the viability value of the cells in the control vehicle group (as shown in FIG. 9), the proliferation viability of all cells in the drug administration group was calculated, and then the efficacy of the drug to be tested was calculated. […]
# [3] = tested on: peripheral blood tumor cells and immune cells of acute myeloid leukemia (AML) patients in PVDF capsule tubes; assay: IO-FIVE capsule test in nude mice, two AML patients #123 and #124 of Example 5 (CTG cell viability and FACS, day 14); type: in vivo, human
# Procedure: BALB/c Nude mice (available from Jiangsu Jicui Yaokang Biotechnology Co. Ltd.) aged 6-8 weeks were ordered from the supplier and kept in the animal house at SPF level. The animals were adaptively kept for at least 3 days before the start of the experiment.
# Fresh peripheral blood samples from two acute myeloid leukemia (AML) patients (in the acute phase of AML) were collected and placed in anticoagulant tubes and transported to the central laboratory by cold chain (2-8° C.) within a short period of time.
# The peripheral blood samples of different patients were transferred into the biological safety cabinet. The cells were centrifuged using a gradient centrifugation gel (available from SIGMA) with a density of 1.077 g/mL at room temperature. […] After resuspension in cell culture medium (available from Gibco), the cells were counted. […]
# 3-21 days after administration (e.g., day 14 here), the mice were euthanized, and the PVDF tubes were removed. Cell viability was quantified by the CellTiter-Glo chemiluminescence method. Changes in the relative ratio and phenotype of tumor cells and immune cells in PVDF tubes were detected by flow cytometry. Bioinformatic changes of tumor cells and immune cells in PVDF capsule tubes of clinical samples at day 0 or day 10 were detected by molecular biological methods (RNA sequencing, and DNA sequencing technology, etc.). […]
# [4] = tested on: peripheral blood and/or bone marrow tumor cells and immune cells of acute myeloid leukemia (AML) patients in PVDF capsule tubes; assay: IO-FIVE capsule test in nude mice, three AML patients #128, #129, #131 of Example 6 (CTG cell viability and FACS, day 14); type: in vivo, human
# Procedure: Fresh peripheral blood samples and/or bone marrow from three acute myeloid leukemia (AML) patients (in the acute phase) were collected and placed in anticoagulant tubes, and transported to the central laboratory by cold chain (2-8° C.) within a short period of time.
# Quality control analysis was performed according to the data obtained by flow cytometry so as to meet the requirement that the ratio of CD8+ T cells was at least more than 0.5% (the required minimum concentration), and the tumor cells (CD45^low/+ SSC-A^mid/hi CD33+/CD38+ cells) and the CD45^high SSC-A^lowCD3+ T lymphocytes were uniformly mixed according to a certain ratio (C/T (CD38+Cancer/CD3+T)=1.5:1 to 15:1), and then filled into PVDF tubes and sealed.
# Cell viability as measured by luminescence (CTG method) on day 14: according to the viability value of the cells in the control group (as shown in FIG. 21), the proliferation viability of all the cells in the drug administration group was calculated, and then the efficacy of the drug was calculated.
# Flow cytometry detection on day14: the relative ratio of tumor cells and immune cells in PVDF tubes was detected by flow cytometry. The differences between tumor cells and immune cells in the drug group and the control group were compared (as shown in FIG. 22). The results were analyzed by Flowjo software.
Molecule,clinical response of the patient [1],viability of total cells / overall tumor viability (CTG) [2],"response (cell viability by CTG, FACS) ([3]; patient #123, C/T about 15:1, CD8+ T 0.21%)","response / inhibitory effect on cell viability (CTG) compared with control vehicle ([3]; patient #124, C/T about 6:1)",proportion of cancer blasts in the capsules (FACS) ([4]; patient #128),proportion of cancer blasts in the capsules (FACS) ([4]; patient #129),AML blasts and CD8+ TILs (FACS) ([4]; patient #131),"response (cell viability, CTG) ([4]; patient #131, C/T 4.5)"
"NC(=O)c1cccc2cn(-c3ccc([C@@H]4CCCNC4)cc3)nc12 [PARP inhibitor, Niraparib]",poor clinical response,neither PD1 antibody nor PARP inhibitor mono-therapy could inhibit the overall tumor viability,–,–,–,–,–,–
Daratumumab [CD38 antibody],–,–,did not respond,great response,cancer blasts still occupied a dominant proportion in the capsules,cancer blasts still occupied a dominant proportion in the capsules,less AML blasts and more CD8+ TILs,positive response
